# Where “and” joins values, the source holds several entries; their conditions need not be identical. Equal values may be shown once. Entries after “also recorded” stand apart in the source; their conditions may differ.
# Tests used:
# Daoy = assay: brain tumor cell line growth inhibition, Daoy; format: cell-based; details: Homo sapiens, desmoplastic cerebellar medulloblastoma
# Method: (§1) These GI50s were determined using standard tumor growth inhibition assays.
# SK-N-MC = assay: brain tumor cell line growth inhibition, SK-N-MC; format: cell-based; details: Homo sapiens, neuroepithelioma
# Method: as §1
# SW1088 = assay: brain tumor cell line growth inhibition, SW1088; format: cell-based; details: Homo sapiens; SW1088, astrocytoma
# Method: as §1
# LN-18 = assay: brain tumor cell line growth inhibition, LN-18; format: cell-based; details: Homo sapiens; LN-18, glioblastoma; glioma
# Method: as §1
# SK-N-FI = assay: brain tumor cell line growth inhibition, SK-N-FI; format: cell-based; details: Homo sapiens, neuroblastoma
# Method: as §1
# U87 = assay: brain tumor cell line growth inhibition, U87; format: cell-based; details: Homo sapiens, U-87 MG; U87, glioblastoma; astrocytoma
# Method: as §1
# [1] = test system: various brain tumor cell lines; assay: proliferation in various brain tumor cell lines; format: cell-based, human and mouse; details: all brain tumor cell lines evaluated
# Method: Compound 76 is a synthetic, orally bioavailable, novel small molecule microtubule polymerization inhibitor with very high CNS penetration. The efficacy of Compound 76 as a novel anti-cancer agent is tested directly using mouse model of malignant glioma. Compound 76 is an orally administered tubulin polymerization inhibitor that binds to a novel site on heterodimeric tubulin, and to a novel conformation of the dimer. Compound 76 can inhibit Src signaling in tumors. Compound 76 has been evaluated in various brain tumor cell lines. […] When administered orally to mice at a dose of 10 mg/kg, the ratio of drug levels in the brain compared to plasma levels was 0.76, indicating excellent BBB penetration as in Example 1.
# Compound 76 was evaluated in various human and mouse brain tumor cells derived from glioblastoma multiforme, astrocytoma and medulloblastoma. […] When administered to mice Compound 76 penetrated the brain by 76%, thereby successfully addressing the first major challenge in brain cancer drug discovery. Drugs which are used to treat brain tumors often penetrate only 20% or less.
# GL261 glioma [2] = assay: intracranial GL261 glioma survival study; format: in vivo, C57BL/6 mice
# Method: The studies were conducted in C57BL/6 mice. GL261 glioma cells (1×10^5 in 5 μl DMEM) were implanted intracranial coordinates: bregma, lateral 2.0 mm, anterior 1.2 mm, 3.0 mm depth dura. Treatment was initiated 3 days post implantation.
# The median survival range and the log-rank (Mantel-Cox) statistical test results comparing the survival distributions of the samples.
# GL261 glioma [3] = assay: orthotropic GL261 glioma model, immune-competent mice; format: in vivo, C57BL/6 mice
# Text: (§2) FIGS. 4A-C are a series of graphs showing the survival of C57BL6 mice with intracerebral GL261 glioma implants. Mice received intracerebral implants of 1×10^5 GL261 cells by stereotactic injection at 2 mm lateral, 1 mm anterior to bregma at 3 mm depth. After 4 days mice began indicated regimen of oral Compound 76. […] Compound 76 extended median survival from 21 to 29 days (range). n=10. […] Compound 76 extended median survival >100 days (range), with up to 60% of drug treated mice experiencing complete tumor regression, n=10. Long term survivors were confirmed tumor free by high field MRI in FIG. 6. […] See high field MRI in FIG. 6
# (§3) Compound 76 was also evaluated in the orthotropic GL261 glioma model in immune-competent, syngeneic C57BL/6 mice. Mice implanted intracerebrally with 1×10^5 GL261 cells treated with vehicle alone (saline) have a median survival time (MeST) of 21 days (range 18-28). Mice treated by oral Compound 76 (30 mg/kg, b.i.d.) have a MeST of 30.5 days ranging 23-32 days. In contrast, when Compound 76 is given orally at (30 mg/kg, s.i.d.) the MeST increases to over 120 days, with more than 60% of the treatment group still alive 12 months later (p<0.0001). […] Further experiments were performed using a SCID version of C57BL/6 mice (B6.CB17-Prkdc^scid/SzJ), a mouse model of B6 background, but is immune-compromised.
# as §3, with “was” for “was also”
# GL261 glioma [4] = assay: GL261 intracerebral tumors in SCID mice; format: in vivo, B6.CB17-Prkdc^scid/SzJ mice
# Text: as §2, §3
# as §3, with “was” for “was also”
# GL261 glioma [5] = assay: re-challenge of long term survivor mice with s.c. GL261 cells; format: in vivo, C57BL/6 mice; details: 1×10^6 s.c. GL261 cells; mice cured by Compound 76
# Text: FIG. 5 is a graph of re-challenge of Compound 76 treated long term survivor mice from FIG. 4B with 1×10^6 s.c. GL261 glioa cells. Age and litter matched controls were implanted.
# survivin = assay: additional molecular studies, survivin
structure (smiles),measurement,setting,value
O=C(Cc1ccc(-c2ccc(N3CCOCC3)cc2)cn1)NCc1cccc(F)c1 [Compound 76],IC50,Daoy,54.9 nM
same,IC50,SK-N-MC,0.13 nM
same,IC50,SW1088,22.1 nM
same,IC50,LN-18,2.9 nM
same,IC50,SK-N-FI,0.46 nM
same,IC50,U87,9.7 nM
same,GI50,[1],< 55 nM
same,Median survival,GL261 glioma [2]; 15 mg/kg bid oral,30.5
same,survival Range,GL261 glioma [2]; 15 mg/kg bid oral,25-34
same,Median survival,GL261 glioma [2]; 30 mg/kg bid oral,29
same,survival Range,GL261 glioma [2]; 30 mg/kg bid oral,23-32
same,residual tumor by MRI,"GL261 glioma [3]; 30 mg/kg s.i.d., C57BL/6 mice",no residual tumor is observed
same,histopathology of tumor site / residual GL261 glioma,GL261 glioma [3]; Compound 76 treated mice,large areas of necrosis and lymphocytic infiltration; also recorded: lymphocytic infiltration of the tumor site
same,brain edema,GL261 glioma [3]; compared with placebo or Temodar treated mice,much less brain edema
same,"median survival time (MeST), range","GL261 glioma [3]; oral 30 mg/kg, b.i.d.",23 to 32 days
same,median survival time (MeST),"GL261 glioma [3]; oral 30 mg/kg, b.i.d. (twice daily), vehicle 21 days, 30 mg/kg",29 days and 30.5 days
same,treatment group still alive 12 months later,"GL261 glioma [3]; oral 30 mg/kg, s.i.d.",more than 60%
same,growth rate of intracerebral GL261 glioma,GL261 glioma [3]; relative to control groups,very significantly slows the rate of tumor growth; also recorded: slows the growth rate
same,treated mice with complete tumor regression,GL261 glioma [3]; single dose per day (s.i.d.),up to 60%
same,"median survival time (MeST), range",GL261 glioma [4],29 to 75 days
same,tumor reoccurrence by MRI,GL261 glioma [4]; after drug was discontinued,tumor reoccurrence; also recorded: all proceeded to develop lethal GL261 gliomas
same,long term survivors,GL261 glioma [4]; oral 30 mg/kg once daily,no long term survivors
same,median survival time (MeST),"GL261 glioma [4]; oral 30 mg/kg once daily, 30 mg/kg",29 days and 40 days
same,second GL261 tumor challenge in long term survivors,GL261 glioma [5],rejected the second GL261 tumor challenge; also recorded: rejected a second GL261 tumor implant challenge
same,effect on intracellular survivin,survivin,increased expression and altered the localization of intracellular survivin
